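How tested: cells in 96-well plates exposed to compound for 48 hours at five concentrations. Definition used: TGI = concentration required for complete inhibition of growth.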
Key:
Assay in all cases: inhibition of tumour cell growth, NCI panel, 48 h
786-0 renal = system: 786-0 renal
A498 renal = system: A498 renal
A549 NSCLC = system: A549 NSCLC
ACHN renal = system: ACHN renal
BT-549 breast = system: BT-549 breast
CAKI-1 renal = system: CAKI-1 renal
CCRF-CEM leukemia = system: CCRF-CEM leukemia
COLO 205 colon = system: COLO 205 colon
DU-145 prostate = system: DU-145 prostate
EKVX NSCLC = system: EKVX NSCLC
HCC-2998 colon = system: HCC-2998 colon
HCT-116 colon = system: HCT-116 colon
HCT-15 colon = system: HCT-15 colon
HL-60(TB) leukemia = system: HL-60(TB) leukemia
HOP-62 NSCLC = system: HOP-62 NSCLC
HS 578T breast = system: HS 578T breast
HT29 colon = system: HT29 colon
IGROV1 ovarian = system: IGROV1 ovarian
K-562 leukemia = system: K-562 leukemia
KM12 colon = system: KM12 colon
LOX IMVI melanoma = system: LOX IMVI melanoma
M14 melanoma = system: M14 melanoma
MALME-3M melanoma = system: MALME-3M melanoma
MCF7 breast = system: MCF7 breast
MDA-MB-231 breast = system: MDA-MB-231 breast
MDA-MB-435 = system: MDA-MB-435
MDA-N = system: MDA-N
MOLT-4 leukemia = system: MOLT-4 leukemia
NCI-H23 lung = system: NCI-H23 lung
NCI-H460 lung = system: NCI-H460 lung
NCI-H522 lung = system: NCI-H522 lung
NCI/ADR-RES ovarian = system: NCI/ADR-RES ovarian
OVCAR-3 ovarian = system: OVCAR-3 ovarian
OVCAR-4 ovarian = system: OVCAR-4 ovarian
OVCAR-5 ovarian = system: OVCAR-5 ovarian
OVCAR-8 ovarian = system: OVCAR-8 ovarian
PC-3 prostate = system: PC-3 prostate
RPMI-8226 leukemia = system: RPMI-8226 leukemia
RXF 393 renal = system: RXF 393 renal
SF-268 CNS = system: SF-268 CNS
SF-295 CNS = system: SF-295 CNS
SF-539 CNS = system: SF-539 CNS
SK-MEL-2 melanoma = system: SK-MEL-2 melanoma
SK-MEL-28 melanoma = system: SK-MEL-28 melanoma
SK-MEL-5 melanoma = system: SK-MEL-5 melanoma
SN12C renal = system: SN12C renal
SNB-19 CNS = system: SNB-19 CNS
SNB-75 CNS = system: SNB-75 CNS
SR leukemia = system: SR leukemia
SW-620 colon = system: SW-620 colon
TK-10 renal = system: TK-10 renal
U251 CNS = system: U251 CNS
UACC-257 melanoma = system: UACC-257 melanoma
UACC-62 melanoma = system: UACC-62 melanoma
UO-31 renal = system: UO-31 renal
HOP-92 NSCLC = system: HOP-92 NSCLC
SK-OV-3 ovarian = system: SK-OV-3 ovarian
T-47D breast = system: T-47D breast

Question: With `COc1cccc(C2C3=C(COC3=O)Oc3cc4c(cc32)OCO4)c1` (stereo not drawn) as the compound, how does the TGI (786-0 renal) read?
Answer: > 66.4 µM

Question: What about the TGI (A498 renal) of the same compound?
Answer: 1.27 µM

Question: And the TGI (A549 NSCLC)?
Answer: > 100 µM

Question: What about the TGI (ACHN renal) of the same compound?
Answer: > 53.1 µM

Question: What about the TGI (BT-549 breast) of the same compound?
Answer: > 100 µM

Question: What about the TGI (CAKI-1 renal) of the same compound?
Answer: > 100 µM

Question: And the TGI (CCRF-CEM leukemia)?
Answer: 7.74 µM

Question: What about the TGI (COLO 205 colon) of the same compound?
Answer: 0.631 µM

Question: What about the TGI (DU-145 prostate) of the same compound?
Answer: 6.77 µM

Question: What about the TGI (EKVX NSCLC) of the same compound?
Answer: > 58 µM

Question: And the TGI (HCC-2998 colon)?
Answer: 1.88 µM

Question: And the TGI (HCT-116 colon)?
Answer: > 31.6 µM

Question: And the TGI (HCT-15 colon)?
Answer: > 42.4 µM

Question: What about the TGI (HL-60(TB) leukemia) of the same compound?
Answer: 0.0524 µM

Question: And the TGI (HOP-62 NSCLC)?
Answer: > 14 µM

Question: And the TGI (HS 578T breast)?
Answer: > 100 µM

Question: And the TGI (HT29 colon)?
Answer: 1.3 µM

Question: What about the TGI (IGROV1 ovarian) of the same compound?
Answer: > 64.9 µM

Question: What about the TGI (K-562 leukemia) of the same compound?
Answer: 6.11 µM

Question: What about the TGI (KM12 colon) of the same compound?
Answer: 6.43 µM

Question: What about the TGI (LOX IMVI melanoma) of the same compound?
Answer: > 22.1 µM

Question: And the TGI (M14 melanoma)?
Answer: > 100 µM

Question: What about the TGI (MALME-3M melanoma) of the same compound?
Answer: > 100 µM

Question: And the TGI (MCF7 breast)?
Answer: > 100 µM

Question: What about the TGI (MDA-MB-231 breast) of the same compound?
Answer: > 43.3 µM

Question: What about the TGI (MDA-MB-435) of the same compound?
Answer: 0.0817 µM

Question: What about the TGI (MDA-N) of the same compound?
Answer: < 0.0202 µM

Question: And the TGI (MOLT-4 leukemia)?
Answer: 14.1 µM

Question: And the TGI (NCI-H23 lung)?
Answer: 24.9 µM

Question: And the TGI (NCI-H460 lung)?
Answer: > 34 µM

Question: What about the TGI (NCI-H522 lung) of the same compound?
Answer: 0.0596 µM

Question: What about the TGI (NCI/ADR-RES ovarian) of the same compound?
Answer: > 6.6 µM

Question: What about the TGI (OVCAR-3 ovarian) of the same compound?
Answer: 0.43 µM

Question: What about the TGI (OVCAR-4 ovarian) of the same compound?
Answer: > 100 µM

Question: What about the TGI (OVCAR-5 ovarian) of the same compound?
Answer: > 90 µM

Question: What about the TGI (OVCAR-8 ovarian) of the same compound?
Answer: 20 µM

Question: What about the TGI (PC-3 prostate) of the same compound?
Answer: > 100 µM

Question: And the TGI (RPMI-8226 leukemia)?
Answer: 3.03 µM

Question: And the TGI (RXF 393 renal)?
Answer: > 100 µM

Question: What about the TGI (SF-268 CNS) of the same compound?
Answer: > 62.6 µM

Question: What about the TGI (SF-295 CNS) of the same compound?
Answer: 0.228 µM

Question: What about the TGI (SF-539 CNS) of the same compound?
Answer: 0.0667 µM

Question: What about the TGI (SK-MEL-2 melanoma) of the same compound?
Answer: > 100 µM

Question: And the TGI (SK-MEL-28 melanoma)?
Answer: > 100 µM

Question: And the TGI (SK-MEL-5 melanoma)?
Answer: > 43.1 µM

Question: What about the TGI (SN12C renal) of the same compound?
Answer: > 100 µM

Question: What about the TGI (SNB-19 CNS) of the same compound?
Answer: > 100 µM

Question: What about the TGI (SNB-75 CNS) of the same compound?
Answer: > 100 µM

Question: And the TGI (SR leukemia)?
Answer: > 100 µM

Question: And the TGI (SW-620 colon)?
Answer: > 100 µM

Question: What about the TGI (TK-10 renal) of the same compound?
Answer: 93.6 µM

Question: What about the TGI (U251 CNS) of the same compound?
Answer: > 100 µM

Question: And the TGI (UACC-257 melanoma)?
Answer: > 100 µM

Question: And the TGI (UACC-62 melanoma)?
Answer: > 100 µM

Question: And the TGI (UO-31 renal)?
Answer: > 100 µM

Question: `CCCCCCCN1C(=O)C(O)(c2ccc(C3(O)C(=O)N(CCCCCCC)c4ccccc43)s2)c2ccccc21` (stereo not drawn) was tested. Which TGI (786-0 renal) did it give?
Answer: 3.61 µM

Question: And the TGI (ACHN renal)?
Answer: 4.92 µM

Question: What about the TGI (BT-549 breast) of the same compound?
Answer: 4.12 µM

Question: And the TGI (CCRF-CEM leukemia)?
Answer: 27 µM

Question: What about the TGI (COLO 205 colon) of the same compound?
Answer: 3.21 µM

Question: And the TGI (DU-145 prostate)?
Answer: 3.29 µM

Question: And the TGI (HCC-2998 colon)?
Answer: 3.44 µM

Question: What about the TGI (HCT-116 colon) of the same compound?
Answer: 3.18 µM

Question: What about the TGI (HCT-15 colon) of the same compound?
Answer: 4.42 µM

Question: And the TGI (HL-60(TB) leukemia)?
Answer: 3.42 µM

Question: What about the TGI (HOP-62 NSCLC) of the same compound?
Answer: 3.41 µM

Question: And the TGI (HOP-92 NSCLC)?
Answer: 3.55 µM

Question: What about the TGI (HS 578T breast) of the same compound?
Answer: 5.31 µM

Question: What about the TGI (HT29 colon) of the same compound?
Answer: 3.28 µM

Question: And the TGI (IGROV1 ovarian)?
Answer: 4.28 µM

Question: And the TGI (K-562 leukemia)?
Answer: 7.67 µM

Question: And the TGI (KM12 colon)?
Answer: 3.36 µM

Question: And the TGI (LOX IMVI melanoma)?
Answer: 3.51 µM

Question: And the TGI (M14 melanoma)?
Answer: 3.69 µM

Question: What about the TGI (MCF7 breast) of the same compound?
Answer: 5.7 µM

Question: And the TGI (MDA-MB-231 breast)?
Answer: 4.12 µM

Question: What about the TGI (MDA-MB-435) of the same compound?
Answer: 3.87 µM

Question: What about the TGI (MDA-N) of the same compound?
Answer: 4.06 µM

Question: What about the TGI (MOLT-4 leukemia) of the same compound?
Answer: 4.16 µM

Question: What about the TGI (NCI-H460 lung) of the same compound?
Answer: 3.49 µM

Question: And the TGI (OVCAR-4 ovarian)?
Answer: 3.77 µM

Question: And the TGI (OVCAR-5 ovarian)?
Answer: 3.24 µM

Question: What about the TGI (OVCAR-8 ovarian) of the same compound?
Answer: 4.41 µM

Question: What about the TGI (PC-3 prostate) of the same compound?
Answer: 3.8 µM

Question: And the TGI (RPMI-8226 leukemia)?
Answer: 4.69 µM

Question: And the TGI (SF-268 CNS)?
Answer: 3.97 µM

Question: What about the TGI (SF-295 CNS) of the same compound?
Answer: 3.42 µM

Question: And the TGI (SF-539 CNS)?
Answer: 3.34 µM

Question: And the TGI (SK-MEL-2 melanoma)?
Answer: 2.93 µM

Question: And the TGI (SK-MEL-28 melanoma)?
Answer: 3.98 µM

Question: And the TGI (SK-MEL-5 melanoma)?
Answer: 3.26 µM

Question: And the TGI (SK-OV-3 ovarian)?
Answer: 2.2 µM

Question: What about the TGI (SN12C renal) of the same compound?
Answer: 3.42 µM

Question: What about the TGI (SNB-19 CNS) of the same compound?
Answer: 8.7 µM

Question: And the TGI (SNB-75 CNS)?
Answer: 17.3 µM

Question: And the TGI (SR leukemia)?
Answer: 18.4 µM

Question: What about the TGI (SW-620 colon) of the same compound?
Answer: 4.55 µM

Question: And the TGI (T-47D breast)?
Answer: 15 µM

Question: And the TGI (TK-10 renal)?
Answer: 5.67 µM

Question: What about the TGI (U251 CNS) of the same compound?
Answer: 3.17 µM

Question: What about the TGI (UACC-257 melanoma) of the same compound?
Answer: 4.42 µM

Question: And the TGI (UACC-62 melanoma)?
Answer: 4.06 µM

Question: And the TGI (UO-31 renal)?
Answer: 3.14 µM

From PubChem BioAssay (NCI)
